A value given as a limit tells only on which side of the number the result lay.

In assay [1] the target is T1, Neuronal acetylcholine receptor; alpha4/beta2 (Homo sapiens, UniProt P17787+P43681). The experiment in a line: Binding affinity to alpha4beta2 nAChR. Type of assay: protein-complex assay.
Assay [2] deals with T1, Neuronal acetylcholine receptor; alpha4/beta2. Nature of the assay: Partial agonist activity at alpha4beta2 nAChR in human SH-EP1 cells assessed as calcium flux by calcium4-based FLIPR assay relative to nicotine. Type of assay: functional, cell-based. Background: Calcium flux is commonly read through the fluorescence of an indicator in the cells.
Assay [3] has the same target. Nature of the assay: Displacement of [3H]nicotine from alpha4beta2 nAChR in human SH-EP1 cells after 2 hrs by liquid scintillation assay. Format: cell-based.
For assay [4], the target named is T2, Neuronal acetylcholine receptor; alpha3/beta4 (Homo sapiens, UniProt P30926+P32297). Nature of the assay: Agonist activity at human alpha3beta4 nAChR expressed in CHO cells assessed as calcium flux by calcium4-based FLIPR assay. Format: functional, cell-based.
Assay [5] addresses Neuronal acetylcholine receptor subunit alpha-7 (Homo sapiens, UniProt P36544). The experiment in a line: Displacement of [3H]epibatidine from human alpha7 nAChR expressed in CHO cells after 2 hrs by liquid scintillation counting. Type of assay: cell-based. A general note: Displacement assays read how much labelled ligand stays bound in the presence of the test substance.
The target of assay [6] is T2, Neuronal acetylcholine receptor; alpha3/beta4. The experiment in a line: Displacement of [3H]epibatidine from human alpha3beta4 nAChR expressed in CHO cells after 2 hrs by liquid scintillation counting. Type of assay: cell-based.
For assay [7] the target is unchanged. The experiment in a line: Agonist activity at human alpha3beta4 nAChR expressed in CHO cells assessed as calcium flux by calcium4-based FLIPR assay relative to nicotine. Type of assay: functional, cell-based.
For assay [8], the target named is T1, Neuronal acetylcholine receptor; alpha4/beta2. Nature of the assay: Partial agonist activity at alpha4beta2 nAChR in human SH-EP1 cells assessed as calcium flux by calcium4-based FLIPR assay. Type of assay: functional, cell-based.
The target of assay [9] is Neuronal acetylcholine receptor; alpha4/beta2 (Rattus norvegicus, UniProt P09483+P12390). Nature of the assay: Displacement of [3H]epibatidine from alpha4beta2 nAChR in Sprague-Dawley rat cortex after 2 hrs by liquid scintillation counting.
Assay [10] addresses T1, Neuronal acetylcholine receptor; alpha4/beta2. The experiment in a line: Displacement of [3H]methylcarbamylcholine from alpha4beta2 nAChR. Format: protein-complex assay.
For assay [11] the target is unchanged. Nature of the assay: Binding affinity to human alpha4beta2 nAChR expressed in xenopus oocyte.
For assay [12] the target is unchanged. Nature of the assay: Agonist activity at alpha4beta2 nAChR in human SH-EP1 cells assessed as calcium flux by calcium4-based FLIPR assay. Type of assay: functional, cell-based.
Assay [13] shares this target. Nature of the assay: Agonist activity at alpha4beta2 nAChR in human SH-EP1 cells assessed as calcium flux by calcium4-based FLIPR assay relative to nicotine. Format: functional, cell-based.

Sequence of Neuronal acetylcholine receptor; alpha4/beta2 (Rattus norvegicus, UniProt P09483+P12390) (P09483 whole entry): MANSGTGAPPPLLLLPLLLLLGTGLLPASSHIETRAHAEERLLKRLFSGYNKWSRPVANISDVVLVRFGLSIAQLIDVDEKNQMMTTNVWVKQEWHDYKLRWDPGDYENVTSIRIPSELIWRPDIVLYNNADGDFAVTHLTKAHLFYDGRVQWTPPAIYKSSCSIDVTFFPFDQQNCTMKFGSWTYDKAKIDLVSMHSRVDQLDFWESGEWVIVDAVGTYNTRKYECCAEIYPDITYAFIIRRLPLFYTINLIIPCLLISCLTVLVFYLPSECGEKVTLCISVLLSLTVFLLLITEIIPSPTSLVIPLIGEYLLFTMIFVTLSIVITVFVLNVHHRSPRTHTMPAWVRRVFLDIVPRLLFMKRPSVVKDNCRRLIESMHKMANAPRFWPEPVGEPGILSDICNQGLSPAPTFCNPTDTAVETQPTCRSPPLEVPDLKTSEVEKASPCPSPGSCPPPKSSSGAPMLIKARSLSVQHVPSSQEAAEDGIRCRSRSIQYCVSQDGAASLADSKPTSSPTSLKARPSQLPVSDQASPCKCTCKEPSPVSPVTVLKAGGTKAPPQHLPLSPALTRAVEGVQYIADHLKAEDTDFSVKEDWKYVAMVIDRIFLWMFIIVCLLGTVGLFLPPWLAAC
Sequence of Neuronal acetylcholine receptor; alpha4/beta2 (Rattus norvegicus, UniProt P09483+P12390) (P12390 whole entry): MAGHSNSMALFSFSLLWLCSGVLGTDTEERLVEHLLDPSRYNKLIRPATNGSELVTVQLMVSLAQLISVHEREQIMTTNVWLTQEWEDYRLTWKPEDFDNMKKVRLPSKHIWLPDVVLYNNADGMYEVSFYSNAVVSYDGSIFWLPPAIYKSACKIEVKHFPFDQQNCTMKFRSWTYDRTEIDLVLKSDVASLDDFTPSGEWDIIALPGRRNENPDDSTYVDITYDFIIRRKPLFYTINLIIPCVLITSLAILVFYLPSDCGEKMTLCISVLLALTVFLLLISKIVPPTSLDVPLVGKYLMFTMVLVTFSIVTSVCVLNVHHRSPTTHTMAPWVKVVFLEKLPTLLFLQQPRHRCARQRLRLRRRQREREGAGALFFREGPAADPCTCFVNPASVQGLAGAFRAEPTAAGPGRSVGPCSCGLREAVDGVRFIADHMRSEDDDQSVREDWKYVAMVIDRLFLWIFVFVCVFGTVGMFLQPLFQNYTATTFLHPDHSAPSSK
T1 sequence (P17787 whole entry): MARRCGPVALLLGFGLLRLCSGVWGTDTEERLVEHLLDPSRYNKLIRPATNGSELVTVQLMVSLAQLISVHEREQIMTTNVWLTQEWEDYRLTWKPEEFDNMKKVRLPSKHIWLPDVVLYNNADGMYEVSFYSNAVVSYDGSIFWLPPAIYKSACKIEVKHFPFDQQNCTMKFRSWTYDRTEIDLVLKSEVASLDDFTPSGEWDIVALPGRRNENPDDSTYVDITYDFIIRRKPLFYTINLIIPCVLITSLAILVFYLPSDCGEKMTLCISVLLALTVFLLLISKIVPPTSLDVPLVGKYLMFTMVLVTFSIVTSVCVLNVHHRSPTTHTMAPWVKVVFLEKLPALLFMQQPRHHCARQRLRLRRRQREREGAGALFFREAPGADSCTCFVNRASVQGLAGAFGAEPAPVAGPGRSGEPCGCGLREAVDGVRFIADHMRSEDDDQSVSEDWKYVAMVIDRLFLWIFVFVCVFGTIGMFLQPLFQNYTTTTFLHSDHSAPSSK
T1 sequence (P43681 whole entry): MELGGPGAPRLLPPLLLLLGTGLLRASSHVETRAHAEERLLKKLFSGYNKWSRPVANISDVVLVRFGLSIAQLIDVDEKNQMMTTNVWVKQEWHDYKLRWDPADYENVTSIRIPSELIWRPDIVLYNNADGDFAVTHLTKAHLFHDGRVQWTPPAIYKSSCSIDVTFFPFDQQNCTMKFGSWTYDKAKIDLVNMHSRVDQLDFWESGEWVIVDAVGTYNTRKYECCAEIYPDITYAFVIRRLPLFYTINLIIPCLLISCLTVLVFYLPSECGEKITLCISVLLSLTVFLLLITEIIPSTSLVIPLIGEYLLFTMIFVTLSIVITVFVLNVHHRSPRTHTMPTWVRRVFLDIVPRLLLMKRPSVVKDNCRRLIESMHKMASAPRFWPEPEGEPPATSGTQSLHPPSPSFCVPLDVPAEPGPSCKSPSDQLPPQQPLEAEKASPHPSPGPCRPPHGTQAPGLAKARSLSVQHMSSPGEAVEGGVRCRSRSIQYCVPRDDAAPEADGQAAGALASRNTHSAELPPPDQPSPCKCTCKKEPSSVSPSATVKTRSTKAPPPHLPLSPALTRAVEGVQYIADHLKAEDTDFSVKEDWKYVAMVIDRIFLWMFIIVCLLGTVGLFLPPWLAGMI
T2 sequence (P30926 whole entry): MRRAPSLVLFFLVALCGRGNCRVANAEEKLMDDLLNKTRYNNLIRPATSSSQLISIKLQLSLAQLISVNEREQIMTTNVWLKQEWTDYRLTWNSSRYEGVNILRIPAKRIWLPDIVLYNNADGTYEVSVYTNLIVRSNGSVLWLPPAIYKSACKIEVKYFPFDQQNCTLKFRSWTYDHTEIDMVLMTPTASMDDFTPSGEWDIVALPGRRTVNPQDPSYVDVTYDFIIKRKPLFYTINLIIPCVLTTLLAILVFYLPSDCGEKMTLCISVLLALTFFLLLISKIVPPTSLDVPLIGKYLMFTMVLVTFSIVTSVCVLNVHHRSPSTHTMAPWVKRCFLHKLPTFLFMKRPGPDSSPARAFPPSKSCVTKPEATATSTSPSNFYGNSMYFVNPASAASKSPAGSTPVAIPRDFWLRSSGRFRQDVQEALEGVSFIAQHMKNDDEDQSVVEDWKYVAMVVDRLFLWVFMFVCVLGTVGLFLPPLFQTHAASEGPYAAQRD
T2 sequence (P32297 whole entry): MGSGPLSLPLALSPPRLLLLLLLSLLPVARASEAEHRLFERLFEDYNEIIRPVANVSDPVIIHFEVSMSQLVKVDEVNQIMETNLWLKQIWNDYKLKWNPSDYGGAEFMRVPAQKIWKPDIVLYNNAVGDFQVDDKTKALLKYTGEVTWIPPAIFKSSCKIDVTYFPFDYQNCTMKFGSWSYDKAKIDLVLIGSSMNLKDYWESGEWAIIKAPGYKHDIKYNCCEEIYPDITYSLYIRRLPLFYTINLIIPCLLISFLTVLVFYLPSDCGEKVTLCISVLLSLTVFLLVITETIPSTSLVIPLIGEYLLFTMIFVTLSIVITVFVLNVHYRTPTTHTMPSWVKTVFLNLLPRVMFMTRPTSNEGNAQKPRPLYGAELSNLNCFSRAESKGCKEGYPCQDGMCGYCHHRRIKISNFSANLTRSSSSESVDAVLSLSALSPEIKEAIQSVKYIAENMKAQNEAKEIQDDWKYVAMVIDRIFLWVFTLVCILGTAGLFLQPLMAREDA
Sequence of Neuronal acetylcholine receptor subunit alpha-7 (P36544 whole entry): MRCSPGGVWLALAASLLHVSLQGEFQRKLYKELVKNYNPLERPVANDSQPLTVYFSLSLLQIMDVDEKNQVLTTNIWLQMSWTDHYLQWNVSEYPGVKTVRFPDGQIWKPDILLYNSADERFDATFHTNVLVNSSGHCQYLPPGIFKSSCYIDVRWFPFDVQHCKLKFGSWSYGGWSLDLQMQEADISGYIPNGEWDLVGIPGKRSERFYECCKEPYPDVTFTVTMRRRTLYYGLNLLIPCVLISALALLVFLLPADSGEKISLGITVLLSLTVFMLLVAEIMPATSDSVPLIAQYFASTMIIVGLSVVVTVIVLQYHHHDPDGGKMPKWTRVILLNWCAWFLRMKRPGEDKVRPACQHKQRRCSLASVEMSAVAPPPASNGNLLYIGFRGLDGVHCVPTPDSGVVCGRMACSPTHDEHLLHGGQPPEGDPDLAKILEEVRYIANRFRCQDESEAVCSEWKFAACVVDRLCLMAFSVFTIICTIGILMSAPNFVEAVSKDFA

With `CN[C@@H](C)C/C=C/c1cccnc1`, the Ki (in general, the equilibrium dissociation constant of an inhibitor or competing ligand from its target) in assay [1] stood at 0.024 µM.
On the same count and under the same terms, to `CN1CCC=C(c2ccc(Cl)nc2)C1` belongs 0.0022 µM.
`N#Cc1coc(C(=O)N2CC3CNCC(C3)C2)c1`: the maximal response (Emax) (in general, the size of the effect at its maximum, as opposed to the concentration needed) in [2] is 20%; in [7], 19%. Besides, the Ki in assay [3] was 0.033 µM; in assay [5], > 10 µM; in [6], > 10 µM. The EC50 (as a rule, the concentration needed to bring the measured effect to its halfway point) is 35 µM in assay [4] and 110 µM in assay [8].
`O=C(c1occc1F)N1CC2CNCC(C2)C1`: the results for the Emax in [2] and in assay [7] were 15% and 54%, respectively. For the same compound, the Ki in [3] was 0.05 µM; in [5] it was > 10 µM; in assay [6] it was > 10 µM; in assay [9], 0.21 µM. For the same compound, the EC50 in [4] is 32 µM; in assay [8], 22 µM.
In the case of `Cc1ccoc1C(=O)N1CC2CNCC(C2)C1`, the Emax in assay [2] came out at 9%; in assay [7] it was 11%. The Ki was 0.19 µM in assay [3], > 10 µM in assay [5], > 10 µM in [6] and 0.65 µM in assay [9]. The EC50 in assay [4] and in [8] was 25 µM each time.
In the case of `N#Cc1ccoc1C(=O)N1CC2CNCC(C2)C1`, the maximal response (Emax) in assay [2] came out at 8%; in assay [7], 16%. The Ki in assay [3] was 0.039 µM; in assay [5], > 10 µM; in assay [6] it was > 10 µM; in [9], 0.28 µM. Further, the half-maximal effective concentration (EC50) was 21 µM in [4] and 26 µM in assay [8].
Consider `c1cncc(N2CC3CNCC(C3)C2)c1`, for which, in assay [1], the inhibition constant (Ki) is 0.0002 µM.
As for `CCC(=O)C1=CCCN(C)C1` [ARECOLON], the affinity in assay [1], expressed as Ki, was 0.0058 µM.
Take `O=C(c1cc(Br)co1)N1CC2CNCC(C2)C1`: the Emax was 34% in [2] and 13% in assay [7]. Also, the Ki in assay [3] is 0.003 µM; in assay [5], > 10 µM; in assay [6], 9.3 µM; in assay [9], 0.057 µM. Moreover, the EC50 in assay [4] amounted to 50 µM; in assay [8], 18 µM.
As for `O=C(c1cc(F)co1)N1CC2CNCC(C2)C1`, the values for the maximum response (Emax) in assay [2] and in assay [7] were 66% and 93%, respectively. Moreover, the figures for the Ki in assay [3], in assay [5] and in [6] were 0.022 µM, > 10 µM and 3.2 µM, respectively. Besides, the values for the EC50 in assay [4] and in [8] were 22 µM and 0.8 µM, respectively.
`C(=C1/CN2CCC1CC2)/c1cccnc1` showed a Ki in assay [10] of 0.002 µM.
For the compound `O=C(c1cc(Cl)co1)N1CC2CNCC(C2)C1`, the results for the Emax in assay [2] and in assay [7] were 11% and 27%, respectively. For the same compound, the inhibition constant (Ki) in assay [3] is 0.005 µM; in assay [5] it was > 10 µM; in assay [6] it was 6.6 µM; in [9] it was 0.04 µM. In addition, the values for the EC50 in assay [4] and in [8] were 54 µM and 100 µM, respectively.
For `O=C(c1occc1Cl)N1CC2CNCC(C2)C1`, the figures for the maximal response (Emax) in [2] and in assay [7] were 3% and 26%, respectively. For the same compound, the inhibition constant (Ki) is 0.015 µM in assay [3], > 10 µM in [5], 8.7 µM in assay [6] and 0.12 µM in [9]. Moreover, the results for the 50% effective concentration (EC50) in [4] and in assay [8] were 28 µM and 76 µM, respectively.
On to `Cc1ccc(C(=O)N2CC3CNCC(C3)C2)o1`, for which the maximum response (Emax) worked out at 19% in assay [2] and 11% in assay [7]. Moreover, the Ki in [3] is 0.046 µM; in assay [5] it was > 10 µM; in assay [6] it was > 10 µM; in [9] it was 0.24 µM. For the same compound, the EC50 in assay [4] turned out to be 37 µM; in assay [8] it was 8.5 µM.
Take `N#Cc1ccc(C(=O)N2CC3CNCC(C3)C2)o1`: the Emax in assay [2] was 58%; in assay [7], 64%. In addition, the Ki in assay [3] is 0.008 µM; in assay [5] it was > 10 µM; in assay [6], 21 µM; in assay [9], 0.078 µM. Moreover, the results for the half-maximal effective concentration (EC50) in assay [4] and in assay [8] were 34 µM and 7.1 µM, respectively.
Take `O=C(c1ccc(Br)o1)N1CC2CNCC(C2)C1`: the Emax came out at 23% in assay [2] and 28% in assay [7]. In addition, the Ki was 0.026 µM in assay [3], > 10 µM in assay [5], 6.5 µM in [6] and 0.1 µM in assay [9]. Also, the EC50 in assay [4] was 30 µM; in [8], 8.3 µM.
As to `O=C(c1ccc(F)o1)N1CC2CNCC(C2)C1`, the Emax in [2] amounted to 73%; in assay [7], 110%. The Ki in [3] was 0.003 µM; in [5], 4.7 µM; in [6], 1.1 µM; in assay [9] it was 0.015 µM. Also, the EC50 in [4] amounted to 9.1 µM; in [8] it was 0.3 µM.
With `O=C(c1occc1Br)N1CC2CNCC(C2)C1`, the maximum response (Emax) in assay [2] was 8%; in assay [7], 20%. Moreover, the Ki in assay [3] is 0.023 µM; in [5], > 10 µM; in [6], 6.5 µM; in [9] it was 0.13 µM. Further, the EC50 in assay [4] is 24 µM; in assay [8], 8.6 µM.
In the case of `CC(=O)/C=C1\CN2CCC1CC2`, the inhibition constant Ki in assay [11] was 0.013 µM.
As to `O=C(c1ccc(Br)o1)N1C[C@@H]2CN[C@H](C2)C1`, the values for the concentration for a half-maximal effect (EC50) in assay [12] and in assay [4] were 12 µM and 16 µM, respectively. Also, the Ki in [3] came out at 0.009 µM; in [5] it was 8.2 µM; in assay [6], 1.5 µM; in [9] it was 0.057 µM. Moreover, the maximal effect (Emax) was 61% in [7] and 27% in [13].
As to `C1=C(c2cccnc2)C2CCC(CC1)N2` (stereo not drawn), the affinity in [1] corresponds to a Ki of 0.00027 µM.
Take `COc1ccc(C(=O)N2CC3CNCC3C2)cc1` (stereo not drawn): the figures for the EC50 in assay [12] and in assay [4] were 43 µM and 31 µM, respectively. Moreover, the inhibition constant (Ki) in assay [3] came to 0.026 µM; in [5], 100 µM; in [6], 8.4 µM; in assay [9], 0.14 µM. In addition, the Emax in assay [7] was 22%; in assay [13] it was 9%.
With `O=C(C1CC1)N1C[C@H]2CN[C@@H](C2)C1`, the concentration for a half-maximal effect (EC50) in assay [12] was 1.7 µM; in assay [4], 1.4 µM. Also, the inhibition constant (Ki) in [3] amounted to 0.007 µM; in assay [5] it was 0.04 µM; in [6], 0.11 µM; in [9] it was 0.01 µM. The maximum response (Emax) in assay [7] was determined as 140%; in assay [13], 100%.

Source of the values: ChEMBL document CHEMBL2176988 (J Med Chem, 2012).
